# Patent US20070141146A1, “Novel compositions” (SMITHKLINE BEECHAM PHARMCO PUERTO RICO INCORPORATE, priority 2003, published 2007)
# Experiment: pH dependent solubility of Compound A
# Assay type: physicochemical
# Excerpt: The pH dependent solubility and potential rapid release in the stomach of Compound A causes difficulties in the formulation or oral dosage forms. It is desirable that release is controlled to take place over a period of hours. Such a formulation would require dosing only once a day, and this is likely to improve patient compliance.
compound,measurement,setting,value
"CN(CCOc1ccc(CC2SC(=O)NC2=O)cc1)c1ccccn1 (centres unmarked) [Compound A, 5-[4-[2-(N-methyl-N-(2 pyridyl)amino)ethoxy]benzyl]thiazolidine-2,4-dione]",solubility,"aqueous buffer, pH 7, near neutral pH of the small intestine",~80 µg/mL
same,solubility,"simulated gastric fluid, pH 2, acidic regions associated with the stomach",~5000 µg/mL
